According to US12678488B2, “Batch management method for improving farrowing rate or number of piglets born alive in swine” (priority 2024, dated 2026):
“Also recorded” adds a separate entry of the source.

What was measured:
[1] = system: Enpp2, Lpar3 and ptgs2 mRNA (LPA signalling pathway) in the uterus; assay: Quantitative PCR of key molecules in the LPA signalling pathway in mouse uteri; type: in vivo; conditions: mice, 10 μg/kg·BW
Protocol: 6-8-week-old ICR female mice acclimatized to the laboratory mouse house environment and in a good condition were selected and divided into a batch farrowing with FTAI model group, a batch farrowing with FTAI+low-dose model group, and a batch farrowing with FTAI+high-dose model group, and 10IU PMSG was injected at 17:00 pm. […] At 7:00-9:00 the next morning, vaginal plugs were examined, and this day was recorded as day 1 (D1) of pregnancy. In the afternoon of day 5 (D5) of pregnancy, 0.4 ml of 1% Chicago blue-normal saline solution was injected into model mice at the caudal vein, and after 3 minutes of systemic circulation, the mice were sacrificed by means of cervical dislocation, the abdominal cavity was immediately cut open, and the abdominal aorta was cut for bleeding. […] Blue dots on the uterus were recorded as embryo implantation sites, the number of implantation sites was counted, and patterns of embryo spacing in different groups were drawn.
Unfixed uteri were isolated for RNA extraction, reverse transcription and quantitative PCR detection of several key target molecules in the LPA signalling pathway, i.e., detection of Enpp2 (a gene for the expression of ATX, the key enzyme of LPA synthesis), Lpar3 (LPA receptor gene), and ptgs2 (a key gene downstream of LPAR). […]

estradiol = assay: Peripheral blood estradiol level in gilts after insemination by radioimmunoassay (Example 4); type: in vivo, pigs; conditions: once low-dose 12-20 μg/kg·BW, day 2-day 16 after mating
Protocol: The breed of the gilts used in this experiment was Landrace x Large White binary sows, the gilts were randomly divided into the following 3 groups, and the treatment method for each group was as follows:
batch farrowing with FTAI: the gilts were fed with an altrenogest oral solution at 20 mg/gilt at the same time every day, for 18 days; PMSG at 1000 IU/gilt was injected intramuscularly 42 h after the last feeding with altrenogest, GnRH at 100 μg/gilt was injected intramuscularly after another 80 h, the first timed insemination was performed 24 h after the injection of GnRH, and the second timed insemination was performed after 24 h. […]
Peripheral blood was collected from the gilts in the batch farrowing with FTAI and the batch farrowing with FTAI with supplementing with a single low dose of 1-[bis(4-cyanophenyl)methyl]-1,2,4-triazole at different times after mating, i.e., days 2, 4, 10 12, and 16 after mating, blood was collected from the anterior vena cava of the gilts and centrifuged, the supernatant was taken, stored at −20° C., and then detected for estradiol level by radioimmunoassay.
The detection steps were as follows: 12×75 mm disposable tubes were arranged on a tube rack, and were a total radioactivity counting (tc) tube, a non-specific binding (NSB) tube, a zero standard (0) tube, standard tubes, and sample tubes, respectively. […]

N#Cc1ccc(C(c2ccc(C#N)cc2)n2cncn2)cc1 [1-[bis(4-cyanophenyl)methyl]-1,2,4-triazole]
Enpp2, Lpar3 and ptgs2 mRNA levels in the uteri ([1]; compared with batch farrowing with FTAI model group): significantly higher
Enpp2, Lpar3 and ptgs2 mRNA levels in the uteri ([1]; compared with natural estrus group): no significant difference
blood estradiol (estrogen) level after mating (estradiol): no obvious change; also recorded: no significant effect
